Results on 32 compounds are retold here after patent US20120071505A1, “SUBSTITUTED PYRIDINE DERIVATIVES, PHARMACEUTICAL COMPOSITIONS, AND METHODS OF USE TO TREAT OXIDATIVE STRESS” (HIGH POINT PHARMACEUTICALS, LLC, priority 2009, published 2012).

In this assay the test system is HMOX1 mRNA expression. Kind of assay: Oxidative stress gene expression (mRNA) protocol: heme oxygenase mRNA induction in NHLF cells (Quantigene Plex 2.0, Luminex). Particulars: 6 h, normalized to GAPDH, above DMSO treated cells; for fold induction at 3.75 µM: Homo sapiens, 3.75 μM compound, read-out: Fold Change of HMOX1 mRNA expression at 3.75 μM; for Fold Change of HMOX1 mRNA expression (at 3 μM): 3 μM compound; for Fold Change of HMOX1 mRNA expression (at 10 μM): 10 μM compound. Type of assay: cell-based, human. The method, then:
Oxidative Stress Gene Expression (mRNA) Protocol
Cell Culture. Normal Human Fibroblast (NHLF), were obtained from Lonza. Cultures of cells were maintained in Fibroblast Growth Medium (FGM-2) medium supplemented with 2% fetal bovine serum (FBS), Fibroblast Growth Factor (hFGF-B) 0.5 ml, Insulin 0.5 ml, gentamicin/amphotericin-B 0.5 mL at 37° C. in a humidified atmosphere of 5% CO2. Primary isolates of cell are cultured in T-225 flasks (Corning) as per instructions from the vendor. Cells are grown to 80% confluence before harvesting. Cells are harvested by first washing with 5 mL of Hepes buffered saline solution (Lonza). The buffered salt solution is aspirated and then 5 mL of a solution of Trypsin-EDTA is added to detach the cells from the culture flask. To this mixture 5 mL of Trypsin neutralization solution (Lonza) is added Trypsin. The mixture is centrifuged at 500×g for 10 minutes at 4° C. The cell pellet is resuspended to a final concentration of one million cells per milliliter in fetal bovine serum containing 6% DMSO. The cells are then dispensed into cyrovials and frozen in liquid nitrogen for storage.
Heme oxygenase mRNA expression. Secondary growth of NHLF cells are used for all assays. Cell are thawed and then placed into culture in T225 flasks. The cells are grown to 80% confluency and harvested by washing once with HEPES buffered saline solution and then trypsinized. Equal numbers (7×10^3 cells per well) of NHLF cells were plated in 96 well tissue culture plates (Corning). Cells were incubated overnight in FGM-2 medium prior to exposure to compound. Cells were treated with either DMSO or a compound of the Examples above for 6 h. Preparation of cell lysates was carried out according to instructions using the Quantigene Reagent system 2.0 protocol (Panomics). Heme oxygenase mRNA induction was detected from cell lysate using the Quantigene Plex 2.0 Assay Kit (Panomics) on the Luminex platform (BIO-RAD). Expression of GAPDH mRNA was used as the internal control for the Quantigen Plex 2.0 Assay. The data in Table 1 represents the fold change of heme oxygenase mRNA expression, normalized to control values, above DMSO treated cells.

Consider `COCCCOC(=O)c1cnc2c(OC)cccc2c1S(=O)(=O)C1CCOC1C` (centres unmarked) [Example 10, 8-Methoxy-4-(2-methyl-tetrahydro-furan-3-sulfonyl)-quinoline-3-carboxylic acid 3-methoxy-propyl ester], for which the fold induction at 3.75 µM worked out at 28.5.
`COc1cccc2c(S(=O)(=O)C3CCOC3C)c(C(=O)OC3CCCCC3)cnc12` (centres unmarked) [Example 8, 8-Methoxy-4-(2-methyl-tetrahydro-furan-3-sulfonyl)-quinoline-3-carboxylic acid cyclohexyl ester]: the “Fold Change of HMOX1 mRNA expression (at 3 μM)” value (“Fold Change … (at 3 μM)” for short) is on record as 4.5 (at 3 μM) fold.
With `COCCCOC(=O)c1cnc2c(OC)cccc2c1S(=O)(=O)c1ccoc1C` [Example 12, 8-Methoxy-4-(2-methyl-furan-3-sulfonyl)-quinoline-3-carboxylic acid 3-methoxy-propyl ester], the fold induction at 3.75 µM was determined as 15.3.
`CCCS(=O)(=O)c1cnc2ccc(OC)cc2c1NC1CCCCC1` [Example 30, cyclohexyl-[6-methoxy-3-(propane-1-sulfonyl)-quinolin-4-yl]-amine]: the “Fold Change … (at 3 μM)” value was 4.0 (at 3 μM) fold.
With `CC1OCCC1Sc1cnc2ccccc2c1S(=O)(=O)C1CCOC1C` (centres unmarked) [Example 20, 4-(2-methyl-tetrahydro-furan-3-sulfonyl)-3-(2-methyl-tetrahydro-furan-3-ylsulfanyl)-quinoline], the fold induction at 3.75 µM came out at 25.9.
Turning to `COc1cccc2c(S(=O)(=O)C3CCOC3C)c(C(=O)OCC3CCCO3)cnc12` (centres unmarked) [Example 11, 8-Methoxy-4-(2-methyl-tetrahydro-furan-3-sulfonyl)-quinoline-3-carboxylic acid tetrahydro-furan-2-ylmethyl ester], the “Fold Change … (at 3 μM)” value was 2.7 (at 3 μM) fold.
On the same count and under the same terms, with `CCCS(=O)(=O)c1cnc2c(OC(F)(F)F)cccc2c1NC1CCCC1` [Example 31, cyclopentyl-[3-(propane-1-sulfonyl)-8-trifluoromethoxy-quinolin-4-yl]-amine] the figure was 4.0 (at 3 μM) fold.
Consider `CCOC(=O)c1cnc2c(OC)cccc2c1S(C)(=O)=O` [Example 1, 4-methanesulfonyl-8-methoxy-quinoline-3-carboxylic acid ethyl ester], for which the fold induction at 3.75 µM was 3.4.
The same measure, in the same setting: with `COCCCOC(=O)c1cnc2c(OC)cccc2c1S(=O)(=O)Cc1ccoc1` [Example 13, 4-(Furan-3-ylmethanesulfonyl)-8-methoxy-quinoline-3-carboxylic acid 3-methoxy-propyl ester] the figure was 17.2; with `CCOC(=O)c1cnc2c(OC)cccc2c1S(=O)(=O)C1CCOC1C` (centres unmarked) [Example 2, 8-Methoxy-4-(2-methyl-tetrahydro-furan-3-sulfonyl)-quinoline-3-carboxylic acid ethyl ester], 48.6; with `COc1cccc2c(S(=O)(=O)c3ccoc3C)c(C(=O)OCC3CCCO3)cnc12` (centres unmarked) [Example 15, 8-Methoxy-4-(2-methyl-furan-3-sulfonyl)-quinoline-3-carboxylic acid tetrahydro-furan-2-ylmethyl ester], 4.4.
Take `CCCC(=O)c1cnc2c(OC)cccc2c1S(=O)(=O)C1CCOC1C` (centres unmarked) [Example 7, 1-[8-methoxy-4-(2-methyl-tetrahydro-furan-3-sulfonyl)-quinolin-3-yl]-butan-1-one]: the “Fold Change of HMOX1 mRNA expression (at 10 μM)” value (from here on “Fold Change … (at 10 μM)”) is recorded as 2.8 (at 10 μM) fold.
Consider `COCCCOC(=O)c1cnccc1S(=O)(=O)CC1CCCCC1` [Example 24, 4-Cyclohexylmethanesulfonyl-nicotinic acid 3-methoxy-propyl ester], for which the fold induction at 3.75 µM came to 5.3.
For the compound `CC1OCCC1S(=O)(=O)c1c(-c2ccc(C(F)(F)F)cc2)cnc2ccccc12` (centres unmarked) [Example 27, 3-(4-trifluoromethyl-phenyl)-4-(2-methyl-tetrahydro-furan-3-sulfonyl)-quinoline], the “Fold Change of HMOX1 mRNA expression (at 2.5 μM)” value (2.5 μM compound) was 27.5 (at 2.5 μM) fold.
For `COCCCOC(=O)c1cnccc1S(=O)(=O)C1CCOC1C` (centres unmarked) [Example 21, 4-(2-Methyl-tetrahydro-furan-3-sulfonyl)-nicotinic acid 3-methoxy-propyl ester], the “Fold Change … (at 10 μM)” value was 6.0 (at 10 μM) fold.
`CCOC(=O)/C=C/c1cnc2ccccc2c1S(=O)(=O)C1CCOC1C` (centres unmarked) [Example 26, (E)-3-[4-(2-methyl-tetrahydro-furan-3-sulfonyl)-quinolin-3-yl]acrylic acid ethyl ester]: the fold induction at 3.75 µM is 13.2.
In the case of `CCCS(=O)(=O)c1ccncc1C(=O)OCCCOC` [Example 23, 4-(Propane-1-sulfonyl)-nicotinic acid 3-methoxy-propyl ester], the fold induction at 3.75 µM was 4.2.
On to `CCOC(=O)c1cnc2c(OC)cccc2c1S(=O)(=O)C1CCCCC1` [Example 3, 4-Cyclohexanesulfonyl-8-methoxy-quinoline-3-carboxylic acid ethyl ester], for which the “Fold Change … (at 3 μM)” value is 6.7 (at 3 μM) fold.
Take `CCOC(=O)c1cnc2c(OC)cccc2c1S(=O)(=O)c1ccoc1C` [Example 4, 8-Methoxy-4-(2-methyl-furan-3-sulfonyl)-quinoline-3-carboxylic acid ethyl ester]: the fold induction at 3.75 µM amounted to 5.8.
On the same count and under the same terms, as for `COc1cccc2c(S(=O)(=O)c3ccoc3C)c(C(=O)OCC3CCCC3)cnc12` [Example 19, 8-Methoxy-4-(2-methyl-furan-3-sulfonyl)-quinoline-3-carboxylic acid cyclopentylmethyl ester], the figure is 12.6.
Regarding `CCCS(=O)(=O)c1cnc2ccc(OC)cc2c1NC1CCCC1` [Example 29, cyclopentyl-[6-methoxy-3-(propane-1-sulfonyl)-quinolin-4-yl]amine], the “Fold Change … (at 3 μM)” value is listed as 4.0 (at 3 μM) fold.
As for `CCOC(=O)c1cnc2ccccc2c1S(=O)(=O)C1CCOC1C` (centres unmarked) [Example 6, 4-(2-Methyl-tetrahydro-furan-3-sulfonyl)-quinoline-3-carboxylic acid ethyl ester], the fold induction at 3.75 µM was found to be 64.7.
Same read-out and setting: as for `CC1OCCC1S(=O)(=O)c1c(C(=O)OCC2CCCO2)cnc2ccccc12` (centres unmarked) [Example 17, 4-(2-Methyl-tetrahydro-furan-3-sulfonyl)-quinoline-3-carboxylic acid tetrahydro-furan-2-ylmethyl ester], the figure is 7.8.
The same measure, in the same setting: as for `COCC#Cc1cnc2ccccc2c1S(=O)(=O)C1CCOC1C` (centres unmarked) [Example 25, 3-(3-methoxy-prop-1-ynyl)-4-(2-methyl-tetrahydro-furan-3-sulfonyl)-quinoline], the figure is 13.
Take `COc1cccc2c(S(=O)(=O)C3CCOC3C)c(C(=O)OCC3CCCCC3)cnc12` (centres unmarked) [Example 9, 8-Methoxy-4-(2-methyl-tetrahydro-furan-3-sulfonyl)-quinoline-3-carboxylic acid cyclohexylmethyl ester]: the “Fold Change … (at 3 μM)” value is recorded as 2 (at 3 μM) fold.
For the compound `CCCCCOC(=O)c1cnc2c(OC)cccc2c1S(=O)(=O)c1ccoc1C` [Example 18, 8-Methoxy-4-(2-methyl-furan-3-sulfonyl)-quinoline-3-carboxylic acid pentyl ester], the fold induction at 3.75 µM was determined as 10.2.
Still for that read-out and setting: as for `COCCCOC(=O)c1cnc2ccccc2c1S(=O)(=O)C1CCOC1C` (centres unmarked) [Example 14, 4-(2-Methyl-tetrahydro-furan-3-sulfonyl)-quinoline-3-carboxylic acid 3-methoxy-propyl ester], the figure is 52.4.
Turning to `COCCCOC(=O)c1c[n+]([O-])ccc1S(=O)(=O)C1CCOC1C` (centres unmarked) [Example 22, 4-(2-Methyl-tetrahydro-furan-3-sulfonyl)-1-oxy-nicotinic acid 3-methoxy-propyl ester], the “Fold Change … (at 10 μM)” value is 5.6 (at 10 μM) fold.
Consider `COc1ccc(-c2cnc3ccccc3c2S(=O)(=O)C2CCOC2C)cc1` (centres unmarked) [Example 28, 3-(4-methoxy-phenyl)-4-(2-methyl-tetrahydro-furan-3-sulfonyl)-quinoline], for which the fold induction at 3.75 µM was 12.7.
As to `CCOC(=O)c1cnc2c(OC)cccc2c1S(=O)(=O)Cc1ccoc1` [Example 5, 4-(Furan-3-ylmethanesulfonyl)-8-methoxy-quinoline-3-carboxylic acid ethyl ester], the “Fold Change … (at 10 μM)” value is 2.0 (at 10 μM) fold.
Turning to `CCCS(=O)(=O)c1cnc2c(OC(F)(F)F)cccc2c1NC1CCCCC1` [Example 32, cyclohexyl-[3-(propane-1-sulfonyl)-8-trifluoromethoxy-quinolin-4-yl]-amine], the fold induction at 3.75 µM came to 9.8.
Regarding `COc1cccc2c(S(=O)(=O)Cc3ccoc3)c(C(=O)OCC3CCCO3)cnc12` (centres unmarked) [Example 16, 4-(Furan-3-ylmethanesulfonyl)-8-methoxy-quinoline-3-carboxylic acid tetrahydro-furan-2-ylmethyl ester], the fold induction at 3.75 µM was found to be 2.3.
